Source: US9173400B2, “Anthranilamide arthropodicide treatment” (E I DU PONT DE NEMOURS AND COMPANY, priority 2001, dated 2015)

| SMILES | melting point |
| --- | --- |
| CNC(=O)c1cc(Cl)cc(C)c1NC(=O)c1cc(OCC(F)(F)F)nn1-c1ncccc1Cl | 215 to 217 °C |
| CNC(=O)c1cc(Cl)cc(C)c1NC(=O)c1cc(Cl)nn1-c1ncccc1Cl | 205 to 207 °C |
| CCn1nc(C(F)(F)F)cc1NC(=O)c1c(C)cccc1C(=O)NC(C)C [Example 1, 2-[1-Ethyl-3-trifluoromethylpyrazol-5-ylcarbamoyl]-3-methyl-N-(1-methylethyl)benzamide] | 200 to 204 °C |
| Cc1cccc(C(=O)NC(C)C)c1NC(=O)c1cc(C(F)(F)F)nn1-c1ncccc1C(F)(F)F [Example 3, N-[2-Methyl-6-[[(1-methylethyl)amino]carbonyl]phenyl]-3-(trifluoromethyl)-1-[3-(trifluoromethyl)-2-pyridinyl]-1H-pyrazole-5-carboxamide] | 233 to 235 °C |
